Tests used:
Assay in all cases: relative viability (nuclei count vs DMSO), 5 days (fraction); higher = more cells survive
[1] = compound: CCC1=CN=CN=C1N2CCN(CC2)CC3=NC4=C(N3)C=C(C=C4)C(F)(F)F
Summary of the method: (§1)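 On vehicle-anchored 1536-well plates, lung cancer cell lines held overnight at 37 °C were pinned with five library-drug doses (not always all listed) spaced by √10. With no medium change over 5 days, they were then fixed, permeabilised and Hoechst-stained in one step and imaged at 4×. MetaXpress counted nuclei, and viability is the median across plates of treated-well over vehicle-well nuclei. Acceptance needed control CV below 25% and at least one doubling.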

[2] = compound: CCn1c(-c2nonc2N)nc2cnc(Oc3cccc(NC(=O)c4ccc(OCCN5CCOCC5)cc4)c3)cc21
Summary of the method: as §1

Mirin = compound: N=C1NC(=O)/C(=C/c2ccc(O)cc2)S1 [Mirin]
Summary of the method: as §1

[3] = compound: CCn1c(-c2nonc2N)nc2cnc(Oc3cccc(NC(=O)c4ccc(OCCN5CCOCC5)cc4)c3)cc21 + C[C@@H](Oc1cc(-c2cnn(C3CCNCC3)c2)cnc1N)c1c(Cl)ccc(F)c1Cl [Crizotinib] (partner 1 µM)
Summary of the method: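 Five library-drug doses in √10 steps were combined with a fixed anchor-drug dose, or a single drug was given alone, by pin tool to lung cancer cell lines in 1536-well plates the day after seeding. Nuclei were stained and counted after 5 days. Relative viability is the nuclei count in treated wells over that in vehicle wells, taken as the median of duplicate plates.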

Cell Line | relative viability ([1]; 0.04 µM) | relative viability ([1]; 0.1265 µM) | relative viability ([1]; 0.4 µM) | relative viability ([1]; 1.265 µM) | relative viability ([1]; 4 µM) | relative viability ([2]; 0.04 µM) | relative viability ([2]; 0.1265 µM) | relative viability ([2]; 0.4 µM) | relative viability ([2]; 1.265 µM) | relative viability ([2]; 4 µM) | relative viability (Mirin; 0.25 µM) | relative viability (Mirin; 0.7906 µM) | relative viability (Mirin; 2.5 µM) | relative viability (Mirin; 7.906 µM) | relative viability (Mirin; 25 µM) | relative viability ([3]; first compound 0.04 µM) | relative viability ([3]; first compound 0.1265 µM) | relative viability ([3]; first compound 0.4 µM) | relative viability ([3]; first compound 1.265 µM) | relative viability ([3]; first compound 4 µM)
NCI-H838 | 0.997 | 0.941 | 0.942 | 0.828 | 0.957 | 0.854 | 0.517 | 0.409 | 0.406 | 0.319 | 0.999 | 0.93 | 1.02 | 1.02 | 0.959 | 0.725 | 0.427 | 0.466 | 0.272 | 0.228
NCI-H1299 | 1.04 | 1.01 | 0.986 | 1.01 | 1.01 | 1.03 | 0.931 | 0.84 | 0.767 | 0.681 | 0.999 | 1.09 | 1.03 | 1 | 1.16 | 0.961 | 0.878 | 0.768 | 0.71 | 0.473
NCI-H1355 | 1.01 | 0.935 | 0.918 | 0.931 | 1.04 | 1.04 | 1 | 0.776 | 0.632 | 0.487 | 0.997 | 0.982 | 0.949 | 0.942 | 1.08 | 1.16 | 1.11 | 1.18 | 1.01 | 1.01
NCI-H1437 | 0.948 | 0.92 | 0.921 | 0.863 | 0.747 | 1.03 | 0.933 | 0.763 | 0.796 | 0.705 | 1 | 1.02 | 0.984 | 0.995 | 0.958 | 0.788 | 0.949 | 0.749 | 0.703 | 0.666
NCI-H1563 | 0.956 | 0.965 | 0.953 | 0.9 | 1 | 0.853 | 0.872 | 0.868 | 0.86 | 0.778 | 1.03 | 1.21 | 0.995 | 0.942 | 0.951 | 0.768 | 0.863 | 0.816 | 0.789 | 0.668
NCI-H1650 | 0.82 | 0.824 | 0.84 | 0.703 | 0.981 | 1.21 | 0.894 | 0.858 | 0.746 | 0.812 | 0.963 | 1.08 | 1 | 0.984 | 0.61 | 1.12 | 0.957 | 0.897 | 0.761 | 0.711
NCI-H1651 | 1.08 | 0.961 | 0.978 | 0.909 | 0.988 | 1.05 | 1.01 | 0.826 | 0.7 | 0.648 | 0.962 | 0.973 | 1.03 | 0.866 | 0.918 | 0.871 | 0.98 | 0.822 | 0.667 | 0.907
NCI-H1666 | 0.99 | 0.929 | 0.952 | 0.962 | 0.944 | 1.13 | 1.15 | 1.04 | 0.607 | 0.628 | 1.05 | 1.04 | 0.987 | 0.889 | 0.892 | 1.21 | 1.2 | 1.23 | 0.726 | 0.372
NCI-H1703 | 0.953 | 0.914 | 0.819 | 0.73 | 0.968 | 1.02 | 0.809 | 0.616 | 0.635 | 0.41 | 1.07 | 0.925 | 0.966 | – | 0.83 | 0.641 | 0.799 | 0.484 | 0.426 | 0.205
NCI-H1734 | 0.88 | 0.98 | 0.943 | 0.814 | 1.03 | 0.961 | 0.878 | 0.545 | 0.418 | 0.362 | 0.978 | 0.761 | 0.929 | 0.895 | 0.884 | 0.671 | 0.669 | 0.581 | 0.464 | 0.285
NCI-H1755 | 1.05 | 0.937 | 0.978 | 0.872 | 1 | 1.02 | 0.913 | 0.71 | 0.627 | 0.577 | 1.03 | 1.01 | 1.01 | 1.02 | 1.13 | 0.911 | 0.94 | 0.845 | 0.795 | 0.776
NCI-H1792 | 0.79 | 0.749 | 0.814 | – | 0.96 | 1.05 | 0.773 | 0.343 | 0.458 | 0.599 | 0.775 | 0.925 | 0.859 | 0.711 | 1.06 | 1.08 | 0.99 | – | 0.592 | 0.841
NCI-H1915 | 0.992 | 0.976 | 0.926 | 0.809 | 1.05 | 1.11 | 1.01 | 0.811 | 0.331 | 0.404 | 1 | – | 0.984 | 0.951 | 1.03 | 1.09 | 0.899 | 0.868 | 0.93 | 0.86
NCI-H1944 | 1.11 | 0.929 | 0.847 | 0.652 | 0.852 | 0.977 | 0.946 | 0.577 | 0.576 | 0.336 | 0.979 | 0.952 | 0.971 | 0.898 | 0.625 | 1.15 | 1.11 | – | 1.07 | 1.12

Source: the supplement of paper PMC10307832
